Assay results as given in US8859574B2 (IRM LLC, priority 2008, dated 2014).

Target: T1, IGF-1R Ba/F3 (Homo sapiens, UniProt P08069)
T1 construct: fused on or other part: TEL- (or BCR-) IGF-1R in Ba/F3: the kinase part holds the site
Experiment: Ba/F3 Cell Viability Inhibition Assay (IGF-1R Ba/F3)
Assay type: cell-based, murine
Conditions: Tel-TK transformed Ba/F3 cells, 48 hours, Britelite luminescence
How it was run: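 IL-3-independent murine Ba/F3 cells transformed with a TEL/BCR-fused IGF-1R kinase were seeded at 3750 cells/well and exposed to serially diluted compound for 48 h at 37 °C. Viability was read by Britelite luminescence. IC50 is the concentration giving 50% of DMSO-control viability, from a logistic fit.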

T1 sequence (P08069 999-1274 limits assumed): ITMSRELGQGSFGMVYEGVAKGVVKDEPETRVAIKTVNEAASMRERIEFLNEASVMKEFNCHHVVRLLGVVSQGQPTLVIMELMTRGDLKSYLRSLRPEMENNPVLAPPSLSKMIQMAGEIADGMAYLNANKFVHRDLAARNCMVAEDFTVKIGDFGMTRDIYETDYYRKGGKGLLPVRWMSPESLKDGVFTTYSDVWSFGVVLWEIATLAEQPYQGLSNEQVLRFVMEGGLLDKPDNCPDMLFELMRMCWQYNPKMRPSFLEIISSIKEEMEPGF

Row | SMILES | IC50
1 | Cc1cc(Nc2nc(Nc3cc(C)c(C4CCN(CCC(=O)N5CCCC5)CC4)cc3F)ncc2Cl)n[nH]1 [Compound 242, 3-(4-(4-(5-chloro-4-(5-methyl-1H-pyrazol-3-ylamino)pyrimidin-2-ylamino)-5-fluoro-2-methylphenyl)piperidin-1-yl)-1-(pyrrolidin-1-yl)propan-1-one] | 0.06 µM
2 | Cc1cc(Nc2nc(Nc3cc(C)c(C4CCN(CCCS(=O)(=O)N5CCC5)CC4)cc3F)ncc2Cl)n[nH]1 [Compound 243, N2-(4-(1-(3-(azetidin-1-ylsulfonyl)propyl)piperidin-4-yl)-2-fluoro-5-methylphenyl)-5-chloro-N4-(5-methyl-1H-pyrazol-3-yl)pyrimidine-2,4-diamine] | 0.076 µM
3 | Cc1cc(Nc2nc(Nc3cc(C)c(C4CCN(CCCS(=O)(=O)N5CCCC5)CC4)cc3F)ncc2Cl)n[nH]1 [Compound 244, 5-chloro-N2-(2-fluoro-5-methyl-4-(1-(3-(pyrrolidin-1-ylsulfonyl)propyl)piperidin-4-yl)phenyl)-N4-(5-methyl-1H-pyrazol-3-yl)pyrimidine-2,4-diamine] | 0.084 µM
4 | Cc1cc(Nc2nc(Nc3cc(C)c(C4CCN(CCCS(=O)(=O)N5CCOCC5)CC4)cc3F)ncc2Cl)n[nH]1 [Compound 245, 5-chloro-N2-(2-fluoro-5-methyl-4-(1-(3-(morpholinosulfonyl)propyl)piperidin-4-yl)phenyl)-N4-(5-methyl-1H-pyrazol-3-yl)pyrimidine-2,4-diamine] | 0.077 µM
5 | Cc1cc(Nc2nc(Nc3cc(C)c(C4CCN(CCCC(=O)N5CCOCC5)CC4)cc3F)ncc2Cl)n[nH]1 [Compound 246, 4-(4-(4-(5-Chloro-4-(5-methyl-1H-pyrazol-3-ylamino)pyrimidin-2-ylamino)-5-fluoro-2-methylphenyl)piperidin-1-yl)-1-morpholinobutan-1-one] | 0.058 µM
6 | Cc1cc(Nc2nc(Nc3cc(C)c(C4CCN(CCC(=O)NC5CC5)CC4)cc3F)ncc2Cl)n[nH]1 [Compound 247, 3-(4-(4-(5-chloro-4-(5-methyl-1H-pyrazol-3-ylamino)pyrimidin-2-ylamino)-5-fluoro-2-methylphenyl)piperidin-1-yl)-N-cyclopropylpropanamide] | 0.062 µM
7 | Cc1cc(Nc2nc(Nc3cc(C)c(C4CCN(CCC(N)=O)CC4)cc3F)ncc2Cl)n[nH]1 [Compound 248, 3-(4-(4-(5-chloro-4-(5-methyl-1H-pyrazol-3-ylamino)pyrimidin-2-ylamino)-5-fluoro-2-methylphenyl)piperidin-1-yl)propanamide] | 0.14 µM
8 | Cc1cc(Nc2nc(Nc3cc(C)c(C4CCN(CC5CC5(F)F)CC4)cc3C)ncc2Cl)n[nH]1 (stereo not shown) [Compound 249, 5-chloro-N2-(4-(1-((2,2-difluorocyclopropyl)methyl)piperidin-4-yl)-2,5-dimethylphenyl)-N4-(5-methyl-1H-pyrazol-3-yl)pyrimidine-2,4-diamine] | 0.032 µM
9 | Cc1cc(Nc2nc(Nc3cc(C)c(C4CCN(C5CC5)CC4)cc3C)ncc2Cl)n[nH]1 [Compound 250, 5-chloro-N2-(4-(1-cyclopropylpiperidin-4-yl)-2,5-dimethylphenyl)-N4-(5-methyl-1H-pyrazol-3-yl)pyrimidine-2,4-diamine] | 0.025 µM
10 | Cc1cc(Nc2nc(Nc3cc(C)c(C4CCN(CC5CC5(F)F)CC4)cc3F)ncc2C(F)(F)F)n[nH]1 (stereo not shown) [Compound 251, N^2-(4-(1-((2,2-difluorocyclopropyl)methyl)piperidin-4-yl)-2-fluoro-5-methylphenyl)-N^4-(5-methyl-1H-pyrazol-3-yl)-5-(trifluoromethyl)pyrimidine-2,4-diamine] | 0.052 µM
11 | Cc1cc(Nc2nc(Nc3cc(C)c(C4CCN(C5CCOCC5)CC4)cc3C)ncc2Cl)n[nH]1 [Compound 252, 5-chloro-N2-(2,5-dimethyl-4-(1-(tetrahydro-2H-pyran-4-yl)piperidin-4-yl)phenyl)-N4-(5-methyl-1H-pyrazol-3-yl)pyrimidine-2,4-diamine] | 0.014 µM
12 | Cc1cc(Nc2nc(Nc3cc(C(F)(F)F)c(C4CCNCC4)cc3F)ncc2Cl)n[nH]1 [Compound 253, 5-chloro-N2-(2-fluoro-4-(piperidin-4-yl)-5-(trifluoromethyl)phenyl)-N4-(5-methyl-1H-pyrazol-3-yl)pyrimidine-2,4-diamine] | 0.075 µM
13 | Cc1cc(Nc2nc(Nc3cc(C(F)(F)F)c(C4CCNCC4)cc3C)ncc2Cl)n[nH]1 [Compound 254, 5-chloro-N4-(5-methyl-1H-pyrazol-3-yl)-N2-(2-methyl-4-(piperidin-4-yl)-5-(trifluoromethyl)phenyl)pyrimidine-2,4-diamine] | 0.07 µM
14 | Cc1cc(Nc2ncc(Cl)c(Nc3cc(C4CC4)[nH]n3)n2)c(F)cc1C1CCN(C2CC2)CC1 [Compound 255, 5-chloro-N4-(5-cyclopropyl-1H-pyrazol-3-yl)-N2-(4-(1-cyclopropylpiperidin-4-yl)-2-fluoro-5-methylphenyl)pyrimidine-2,4-diamine] | 0.228 µM
15 | Cc1cc(Nc2nc(Nc3cc(C)c(C4CCNCC4)cc3C)ncc2Cl)n[nH]1 [Compound 256, 5-chloro-N2-(2,5-dimethyl-4-(piperidin-4-yl)phenyl)-N4-(5-methyl-1H-pyrazol-3-yl)pyrimidine-2,4-diamine] | 0.044 µM
16 | Cc1cc(Nc2nc(Nc3cc(C)c(C4CCNCC4)cc3C)ncc2C(F)(F)F)n[nH]1 [Compound 257, N^2-(2,5-dimethyl-4-(piperidin-4-yl)phenyl)-N^4-(5-methyl-1H-pyrazol-3-yl)-5-(trifluoromethyl)pyrimidine-2,4-diamine] | 0.064 µM
17 | Cc1cc(C2CCN(C3CC3)CC2)c(C)cc1Nc1ncc(Cl)c(Nc2cc(C3CC3)[nH]n2)n1 [Compound 258, 5-chloro-N4-(5-cyclopropyl-1H-pyrazol-3-yl)-N2-(4-(1-cyclopropylpiperidin-4-yl)-2,5-dimethylphenyl)pyrimidine-2,4-diamine] | 0.026 µM
18 | Cc1cc(Nc2nc(Nc3cc(C)c(C4CCN(Cc5nc(C(C)C)no5)CC4)cc3F)ncc2Cl)n[nH]1 [Compound 259, 5-Chloro-N^2-(2-fluoro-4-(1-((3-isopropyl-1,2,4-oxadiazol-5-yl)methyl)piperidin-4-yl)-5-methylphenyl)-N-(5-methyl-1H-pyrazol-3-yl)pyrimidine-2,4-diamine] | 0.064 µM
19 | Cc1cc(Nc2nc(Nc3cc(C)c(C4CCN(Cc5nc(C(C)C)no5)CC4)cc3C)ncc2Cl)n[nH]1 [Compound 260, 5-chloro-N2-(4-(1-((3-isopropyl-1,2,4-oxadiazol-5-yl)methyl)piperidin-4-yl)-2,5-dimethylphenyl)-N4-(5-methyl-1H-pyrazol-3-yl)pyrimidine-2,4-diamine] | 0.018 µM
20 | CCc1cc(Nc2ncc(Cl)c(Nc3cc(C)[nH]n3)n2)c(C)cc1C1CCN(CC(N)=O)CC1 [Compound 261, 2-(4-(4-(5-chloro-4-(5-methyl-1H-pyrazol-3-ylamino)pyrimidin-2-ylamino)-2-ethyl-5-methylphenyl)piperidin-1-yl)acetamide] | 0.027 µM
21 | COc1cc(Nc2ncc(Cl)c(Nc3cc(C)[nH]n3)n2)c(C)cc1C1CCN(CC(N)=O)CC1 [Compound 262, 2-(4-(4-(5-chloro-4-(5-methyl-1H-pyrazol-3-ylamino)pyrimidin-2-ylamino)-2-methoxy-5-methylphenyl)piperidin-1-yl)acetamide] | 0.019 µM
22 | CCc1cc(Nc2nc(Nc3cc(C)c(C4CCN(CC(N)=O)CC4)cc3F)ncc2Cl)n[nH]1 [Compound 263, 2-(4-(4-(5-chloro-4-(5-ethyl-1H-pyrazol-3-ylamino)pyrimidin-2-ylamino)-5-fluoro-2-methylphenyl)piperidin-1-yl)acetamide] | 0.033 µM
23 | CCc1cc(Nc2nc(Nc3cc(C)c(C4CCN(C5CS(=O)(=O)C5)CC4)cc3F)ncc2Cl)n[nH]1 [Compound 264, 5-Chloro-N2-{4-[1-(1,1-dioxo-1λ6-thietan-3-yl)-piperidin-4-yl]-2-fluoro-5-methyl-phenyl}-N4-(5-ethyl-1H-pyrazol-3-yl)-pyrimidine-2,4-diamine] | 0.021 µM
24 | Cc1cc(Nc2nc(Nc3cc(C)c(C4CCN(C(=O)c5nc(C(C)C)no5)CC4)cc3F)ncc2Cl)n[nH]1 [Compound 265, (4-(4-(5-Chloro-4-(5-methyl-1H-pyrazol-3-ylamino)pyrimidin-2-ylamino)-5-fluoro-2-methylphenyl)piperidin-1-yl)(3-isopropyl-1,2,4-oxadiazol-5-yl)methanone] | 0.091 µM
25 | Cc1cc(Nc2nc(Nc3cc(C)c(C4CCN(Cc5noc(C(C)(C)C)n5)CC4)cc3C)ncc2Cl)n[nH]1 [Compound 266, N2-(4-(1-((5-tert-butyl-1,2,4-oxadiazol-3-yl)methyl)piperidin-4-yl)-2,5-dimethylphenyl)-5-chloro-N4-(5-methyl-1H-pyrazol-3-yl)pyrimidine-2,4-diamine] | 0.025 µM
26 | Cc1cc(Nc2nc(Nc3cc(C)c(C4CCN(Cc5noc(C(C)(C)C)n5)CC4)cc3F)ncc2Cl)n[nH]1 [Compound 267, N2-(4-(1-((5-tert-butyl-1,2,4-oxadiazol-3-yl)methyl)piperidin-4-yl)-2-fluoro-5-methylphenyl)-5-chloro-N4-(5-methyl-1H-pyrazol-3-yl)pyrimidine-2,4-diamine] | 0.077 µM
27 | CCc1cc(Nc2nc(Nc3cc(C)c(C4CCN(CC)CC4)cc3F)ncc2Cl)n[nH]1 [Compound 268, 5-chloro-N4-(5-ethyl-1H-pyrazol-3-yl)-N2-(4-(1-ethylpiperidin-4-yl)-2-fluoro-5-methylphenyl)pyrimidine-2,4-diamine] | 0.022 µM
28 | Cc1cc(Nc2nc(Nc3cc(C)c(C4CCN(CCc5nc(C(C)C)no5)CC4)cc3C)ncc2Cl)n[nH]1 [Compound 269, 5-Chloro-N2-(4-(1-(2-(3-isopropyl-1,2,4-oxadiazol-5-yl)ethyl)piperidin-4-yl)-2,5-dimethylphenyl)-N4-(5-methyl-1H-pyrazol-3-yl)pyrimidine-2,4-diamine] | 0.039 µM
